The values below come from patent US5476866A, “Isoxazoles” (Roussel Uclaf, priority 1993, dated 1995).

What is called half-life is the time in which the quantity being followed falls by half.

The test system of series [1] is Delayed-type hypersensitivity mouse paw oedema. Description: Delayed-type hypersensitivity mouse paw oedema (DTH-M) (Test 2). The following applies: daily days 4-6, twice day 7, 24 h after MBSA challenge. It is filed as in vivo, male mice CD-1. The procedure: Delayed-type hypersensitivity mouse paw oedema (DTH-M) (Test 2)
Groups of 8 to 10 male mice CD-1 with a weight range of 25-30 g were sensitized by the subcutaneous injection of 1 mg of methylated bovine serum albumin (MBSA) in 0.2 ml volumes of saline/Freund's complete adjuvant (FCA) emulsion. Negative control groups received injections of saline/FCA emulsion. DTH paw oedema responses were assessed twenty-four hours after the right hind foot pad challenge with 0.1 mg of MBSA in 0.05 ml volumes of saline on day seven after sensitization. Contralateral paws received control saline injections. The test compounds or control vehicles were orally administered daily on days four, five, six and twice on day seven, one hour before and six hours after MBSA challenge.

Another series has as its system Adjuvant arthritis. In words: Adjuvant arthritis (Test 4). It counts as in vivo, male rats of a Wistar-Lewis strain. The following applies: 25 mg/kg p.o. once daily for 12 days from day of immunization; vs untreated control. The method, then: Adjuvant arthritis (Test 4) The investigations were carried out by the method of Pearson (Arthrit. Rheum., Vol. 2, (1959) p. 44). The experimental animals used were male rats of a Wistar-Lewis strain having a body weight between 130 to 200 g. The compounds to be tested were administered orally once daily for 12 days, starting on the day of immunization. The animals of a control group received only the vehicle. Each preparation and control group comprised 6 animals. The criterion used to determine activity was the percentage reduction in the increase in paw volume compared to that of the untreated control group.

Series [2] deals with Reverse Passive Arthus Reaction. In words: Reverse Passive Arthus Reaction (Test 5). It counts as in vivo, male or female Wistar rats. The following applies: paw volume at 4 h. The method, then: Reverse Passive Arthus Reaction (Test 5)
One hour before challenge, test compounds were administered orally to male or female Wistar rats weighing 120-200 g. After this pre-treatment period, the reaction was induced by a subplantar injection of goat anti-rat serum in the right hind paw. The left hind paw, which served as a control, was injected with saline alone. Paw volumes were determined immediately and four hours after antibody challenge. Doses are given in units of mg/kg p.o.

For series [3], the system named is Carrageenan rat paw oedema. Description: Carrageenan rat paw oedema (Test 1). It counts as in vivo, male rats CFHB. The following applies: 50 mg/kg p.o.; 1 h before carrageenan; oedema assessed 3 h later. The method, then:
Carrageenan rat paw oedema (Test 1)
One hour after the oral administration of the test compounds or control vehicle to groups of 6 to 12 male rats CFHB with a weight range of 160-180 g, 1 mg of carrageenan dissolved in 0.2 ml of saline was injected into the right hind foot pad. Contralateral paws received control saline injections and paw oedema responses were assessed three hours later.
(In general: The carrageenan paw model is a standard test of acute inflammation.)

Series [4] has as its system Delayed-type hypersensitivity rat paw oedema. In words: Delayed-type hypersensitivity rat paw oedema (Test 3). It is filed as in vivo, male rats CFHB. The following applies: daily days 4-6, twice day 7, 24 h after antigen challenge.
Series [5] in a line: Kinetic data: plasma concentrations after oral administration to mice. It counts as in vivo. The conditions noted are these: 30 mg/kg oral; for metabolic half-life relative to the known compound: fraction of known compound's half-life (approximately 21.4 hours); for half-life: mouse, plasma concentrations monitored for 72 hours, read-out: metabolic half-life (converted). The procedure: A comparison was made between a known compound, namely 5 -cyclopropyl-N-(4-trifluoromethylphenyl)-isoxazole-4-carboxamide and the compounds of the present invention, namely compounds of Examples 5 and 6 above. The compounds were administered orally to mice at doses of 30 mg/kg and plasma concentrations were monitored for 72 hours.

Setting [6] is: 50 mg/kg p.o. 1 h before challenge.
Where [7] appears, read: 100 mg/kg p.o. 1 h before challenge.

With `O=C(Nc1ccc([N+](=O)[O-])cc1)c1cnoc1C1CC1` [Example 2, 5-cyclopropyl-N-(4-nitrophenyl)-isoxazole-4-carboxamide], the “Test 2 % inhibition” value in series [1] (100 mg/kg p.o.) is recorded as 19%. In the series on Adjuvant arthritis, the “Test 4 % inhibition (percentage reduction in the increase in paw volume)” value came to 92%. Moreover, the “Test 5 % inhibition” value in series [2] (setting [6]) was -9%; in series [2] (setting [7]) it was 27%. Also, in series [3], the “Test 1 % inhibition” value amounted to 0%. For the same molecule, the “Test 3 % inhibition” value in series [4] (50 mg/kg p.o.) was 52%.
For `Cc1cc(NC(=O)c2cnoc2C2CC2)ccc1C#N` [Example 5, 5-cyclopropyl-N-(4-cyano-3-methylphenyl)-isoxazole-4-carboxamide], in series [5], the “metabolic half-life relative to the known compound” value was “about one third” and the half-life is 7.1 h. Further, the “Test 2 % inhibition” value in series [1] (30 mg/kg p.o.) is 41%. For the same molecule, the “Test 4 % inhibition (percentage reduction in the increase in paw volume)” value with Adjuvant arthritis is reported as 88%. For the same molecule, the “Test 5 % inhibition” value in series [2] (setting [6]) is 23%. Moreover, the “Test 5 % inhibition” value in series [2] (setting [7]) is recorded as 34%. Besides, in series [3], the “Test 1 % inhibition” value came to 18%. Also, the “Test 3 % inhibition” value in series [4] (10 mg/kg p.o.) worked out at 62%.
Consider `Cc1cc(NC(=O)c2cnoc2C2CC2)ccc1Cl` [Example 4, 5-cyclopropyl-N-(4-chloro-3-methylphenyl)-isoxazole-4-carboxamide], for which the “Test 2 % inhibition” value in series [1] (100 mg/kg p.o.) is recorded as 64%. Further, in the series with Adjuvant arthritis, the “Test 4 % inhibition (percentage reduction in the increase in paw volume)” value worked out at 22%. For the same molecule, the entries for the “Test 5 % inhibition” value in series [2] (setting [6]) and in series [2] (setting [7]) were 17% and 28%, respectively. Besides, in series [3], the “Test 1 % inhibition” value was determined as 11%. Besides, the “Test 3 % inhibition” value in series [4] (50 mg/kg p.o.) worked out at 32%.
With `O=C(Nc1ccc(C(F)(F)F)cc1)c1cnoc1C1CC1` [5-cyclopropyl-N-(4-trifluoromethylphenyl)-isoxazole-4-carboxamide, reference compound], the half-life in series [5] was approximately 21.4 h.
As for `Cc1cc(NC(=O)c2cnoc2C2CC2)ccc1Br` [Example 1, 5-cyclopropyl-N-(4-bromo-3-methylphenyl)-isoxazole-4-carboxamide], the “Test 2 % inhibition” value in series [1] (100 mg/kg p.o.) is 41%. The “Test 4 % inhibition (percentage reduction in the increase in paw volume)” value in the series with Adjuvant arthritis was -16%. The figures for the “Test 5 % inhibition” value in series [2] (setting [6]) and in series [2] (setting [7]) were 42% and 26%, respectively. The “Test 1 % inhibition” value in series [3] was determined as 12%. For the same molecule, in series [4] (50 mg/kg p.o.), the “Test 3 % inhibition” value came to 24%.
As to `N#Cc1ccc(NC(=O)c2cnoc2C2CC2)cc1` [Example 3, 5-cyclopropyl-N-(4-cyanophenyl)-isoxazole-4-carboxamide], the “Test 2 % inhibition” value in series [1] (30 mg/kg p.o.) was determined as 43%. Besides, in the series with Adjuvant arthritis, the “Test 4 % inhibition (percentage reduction in the increase in paw volume)” value turned out to be 90%. Further, the entries for the “Test 5 % inhibition” value in series [2] (setting [6]) and in series [2] (setting [7]) were 41% and 36%, respectively. For the same molecule, the “Test 1 % inhibition” value in series [3] was found to be 43%. Further, in series [4] (10 mg/kg p.o.), the “Test 3 % inhibition” value stood at 60%.
Take `Cc1cc(NC(=O)c2cnoc2C2CC2)ccc1C(F)(F)F` [Example 6, 5-cyclopropyl-N-(3-methyl-4-trifluoromethylphenyl)-isoxazole-4-carboxamide]: the “metabolic half-life relative to the known compound” value in series [5] is recorded as “about one third”. The half-life in series [5] was 8.2 h. In series [1] (100 mg/kg p.o.), the “Test 2 % inhibition” value was determined as 34%. In addition, the “Test 4 % inhibition (percentage reduction in the increase in paw volume)” value in the series with Adjuvant arthritis is recorded as 42%. The “Test 5 % inhibition” value in series [2] (setting [6]) is 24%; in series [2] (setting [7]), 38%. For the same molecule, the “Test 1 % inhibition” value in series [3] came out at 12%. In series [4] (50 mg/kg p.o.), the “Test 3 % inhibition” value is on record as 57%.
